Data as given in publication PMC8447191, “Peptide Amphiphilic-Based Supramolecular Structures with Anti-HIV-1 Activity” (Bioconjugate Chemistry, 2021).
Like-named read-outs stand apart in the source and are kept apart here. *1 amine or outer side, *2 acyl side, *3 side chain or, on linkers, in order; H or OH if unused. Where a SMILES comes first, the peptide text is derived from it. Side-chain parts run from the residue outwards. The star is where a group is joined. X1 = CC(C)CCC[C@@H](C)[C@H]1CC[C@H]2[C@@H]3CC=C4C[C@@H](OC(=O)CSC[C@H](N)C(=O)*)CC[C@]4(C)[C@H]3CC[C@]12C; PEG28 = NCCOCCOCCOCCOCCOCCOCCOCCOCCOCCOCCOCCOCCOCCOCCOCCOCCOCCOCCOCCOCCOCCOCCOCCOCCOCCOCCOCCOCCC(=O)O; N(octadecyl)2 = CCCCCCCCCCCCCCCCCCN(CCCCCCCCCCCCCCCCCC)*; NHOctadecyl = CCCCCCCCCCCCCCCCCCN*; Suc = O=C(CCC(=O)[*:2])[*:1]

Key:
[1] = MTT cytotoxicity assay; assay type: cell-based; conditions: human, HeLa-env cells, PAs coassembled with 5% FAM, 40-2.3 μM, absorbance 560 nm
Experimental: The metabolic activity of the cell line, related to the cytotoxic effect of the compounds to be tested, is measured after 24 h using the MTT assay. This assay is based on the metabolic reduction of 3-(4,5-dimethylthiazol-2-yl)-2,5-diphenyl-2H-tetrazolium bromide (MTT), carried out by the mitochondrial enzyme succinate dehydrogenase, in a colored compound of blue color (formazan) that can be monitored by absorbance spectroscopy at 560 nm, allowing determination of the mitochondrial functionality of the treated cells.
The HeLa-env cell line is seeded in 96-well plates with an initial density of 15,000 cells per well in 100 μL of culture medium (Dulbecco’s modified Eagle’s medium, DMEM, with 10% FBS added) and incubated for 24 h at 37 °C and 5% CO2 to allow their adhesion. The cell monolayers are washed with PBS, and then 100 μL of PAs formulations (peptide amphiphiles coassembled with 5% FAM) are added in a concentration range from 40 μM to 2.3 μM. The plates are kept in incubation for further 24 h.
At the end of the incubation time, the cells are incubated for 3 h with 1 mg/mL of MTT, dissolved in culture medium without FBS, to allow the formation of formazan crystals. Subsequently, 100 μL of DMSO are added to wells, stirring the plates for 30 min at room temperature to facilitate the complete dissolution of the crystals. Finally, the absorbance at 560 nm is measured in a microplate reader.
The results are expressed as relative percentage between absorbance of PA formulations against absorbance of its DMSO controls and CC50 and CC25 values are taken from dose–response curves.

[2] = Visual stability and aspect of POPC vesicles mixed with PAs (SAXS samples); assay type: physicochemical; conditions: POPC 20 mM + 2 mM PA, 0.5% DMSO
Experimental: In Figure 5A,B, we show the spectra corresponding to POPC 20 mM and POPC 20 mM + 2 mM PAs (all of them in the presence of 0.5% DMSO). The band centered at 1.2 nm^–1 and the secondary band at 3.2 nm^–1 were typical of unilamellar vesicles.[35]
The incorporation of PAs had some distinct consequences. The first and more obvious one is the distinction between stable and unstable systems.

[3] = tested on: HIV-1BaL; assay type: cell-based; conditions: colorectal tissue explants, peptide 100-0.1 μM for 1 h before and 2 h during virus (pulse, 3 h), p24 ELISA at day 15, mean (SEM) of triplicates
Source text: Human tissue explants: Surgically resected specimens of colorectal tissues were collected from HIV negative patients at St. Mary’s Hospital, Imperial College Healthcare NHS Trust, London, UK. All tissues were collected after receiving signed informed consent from all patients through the Imperial College Healthcare Tissue Bank approved by Research Ethics Committee Wales (IRAS 17/WA/0161). On arrival in the laboratory, resected tissue was cut into 2–3 mm^3 explants comprising both epithelial and muscularis mucosae as described previously.[57] Tissue explants were maintained with DMEM containing 10% fetal calf serum, 2 mM L-glutamine, and antibiotics (100 U of penicillin/mL, 100 μg of streptomycin/mL, 80 μg of gentamicin/mL) at 37 °C in an atmosphere containing 5% CO2.
(§1) All inhibition assays in cellular and tissue explants models were performed using a standardized amount of virus culture supernatant normalized for infectivity. TZM-bl cells were incubated with serial dilutions of peptides (from 10 μM to 0.00061 μM) for 1 h at 37 °C, prior to challenge with HIV-1BaL. Luciferase expression (r.l.u. values) was determined after 48 h. Alternatively, tissue explants were incubated with serial dilutions of peptide (from 100 μM to 0.1 μM) for 1 h before virus (10^4 TCID50/mL) was added for 2 h. Explants were then washed four times with PBS to remove unbound virus and drug. Colorectal explants were then transferred onto gelfoam rafts (Welbeck Pharmaceuticals, UK) and cultured for 15 days as described previously[57] […]. Explants were cultured for up to 15 days in the absence of peptide. Approximately 50% of the supernatants were harvested every 2–3 days and explants were re-fed with fresh media. The extent of viral replication in tissue explants was determined by measuring the p24 antigen concentration in supernatants (INNOTEST HIV antigen mAb; Fujirebio Europe, Belgium). The extent of inhibition by each peptide was calculated. The percentage of inhibition was normalized relative to the r.l.u, for TZM-bl cells, or p24, for tissue explants, values obtained for cells or explants cultured in the absence of virus (100% inhibition) and for cells or explants infected with virus in the absence of peptide (0% inhibition). Data are the mean (±SEM) of triplicates. When a dose–response curve was obtained, IC50 and, if possible, IC95 values were calculated from sigmoid curve fits (GraphPad Prism). For all curves, R^2 is >0.7.

[4] = tested on: HIV-1BaL; assay type: cell-based; conditions: for IC50 / IC95: HIV-1BaL, TZM-bl cells, peptide 10-0.00061 μM for 1 h at 37 °C before virus, luciferase after 48 h, sigmoid fit, mean of triplicates; for SI (CC50/IC50): ratio of CC50 (MTT assay) to IC50 (HIV-1BaL, TZM-bl cells)
Experimental: HIV-1BaL[52] was provided by the NIH AIDS Research & Reference Reagent Program (http://www.aidsreagent.org/). Viral stock was prepared by passage through activated PBMCs[53] for 11 days.
Luciferase-reporter HeLa cells stably transfected to express CD4 and CCR5; TZM-bl cells[54]−[56] were grown in Dulbecco’s Minimal Essential Medium (DMEM) (Sigma-Aldrich, Inc., St. Louis, MO) containing 10% fetal calf serum (FCS), 2 mM L-glutamine, and antibiotics (100 U of penicillin/mL, 100 μg of streptomycin/mL) at 37 °C in an atmosphere containing 5% CO2.
as §1

[5] = not given; remark: listed apart in the source
[6] = not given; remark: listed apart in the source

SMILES	CC50 at 24 h [1] [µM]	stability / aspect of the sample [2]	IC50 [3] [nM]	IC95 [3]	IC50 [4] [nM]	IC95 [4] [µM]	SI (CC50/IC50) [4]	Trp fluorescence emission maximum (λmax) [nm]	lamellar characteristic distance [5] [nm]	lamellar liquid crystal periodicity [6] [nm]
CCCCCCCCCCCCCCCCCCNC(=O)CCC(=O)NCCOCCOCCOCCOCCOCCOCCOCCOCCOCCOCCOCCOCCOCCOCCOCCOCCOCCOCCOCCOCCOCCOCCOCCOCCOCCOCCOCCOCCC(=O)N[C@@H](Cc1c[nH]c2ccccc12)C(=O)N[C@H](C(=O)N[C@@H](CC(C)C)C(=O)N[C@@H](CCC(=O)O)C(=O)N[C@@H](Cc1ccc(O)cc1)C(=O)N[C@@H](CC(C)C)C(=O)N[C@@H](Cc1c[nH]c2ccccc12)C(=O)N[C@@H](CCCCN)C(=O)N[C@H](C(=O)N1CCC[C@H]1C(=O)N[C@@H](Cc1ccccc1)C(=O)N[C@@H](CC(=O)O)C(=O)N[C@@H](Cc1ccccc1)C(=O)N[C@@H](Cc1c[nH]c2ccccc12)C(=O)N[C@@H](CCCNC(=N)N)C(=O)NCC(=O)N[C@H](C(=O)N[C@H](C(N)=O)[C@@H](C)CC)C(C)C)C(C)C)[C@@H](C)CC [N-PAmonoalkyl] ({NHOctadecyl-Suc-PEG28}-WILEYLWKVPFDFWRGVI-NH2)	17	precipitated rather fast and made compact flocks	280	2.53 (1.14) μM	200	5.87	85	–	–	–
CC[C@H](C)[C@H](NC(=O)[C@@H](NC(=O)CNC(=O)[C@H](CCCNC(=N)N)NC(=O)[C@H](Cc1c[nH]c2ccccc12)NC(=O)[C@H](Cc1ccccc1)NC(=O)[C@H](CC(=O)O)NC(=O)[C@H](Cc1ccccc1)NC(=O)[C@@H]1CCCN1C(=O)[C@@H](NC(=O)[C@H](CCCCN)NC(=O)[C@H](Cc1c[nH]c2ccccc12)NC(=O)[C@H](CC(C)C)NC(=O)[C@H](Cc1ccc(O)cc1)NC(=O)[C@H](CCC(=O)O)NC(=O)[C@H](CC(C)C)NC(=O)[C@@H](NC(=O)[C@@H](N)Cc1c[nH]c2ccccc12)[C@@H](C)CC)C(C)C)C(C)C)C(N)=O [E1P47] (H-WILEYLWKVPFDFWRGVI-NH2)	–	–	–	–	7260	28.21	–	356	–	–
CC[C@H](C)[C@H](NC(=O)[C@@H](NC(=O)CNC(=O)[C@H](CCCNC(=N)N)NC(=O)[C@H](Cc1c[nH]c2ccccc12)NC(=O)[C@H](Cc1ccccc1)NC(=O)[C@H](CC(=O)O)NC(=O)[C@H](Cc1ccccc1)NC(=O)[C@@H]1CCCN1C(=O)[C@@H](NC(=O)[C@H](CCCCN)NC(=O)[C@H](Cc1c[nH]c2ccccc12)NC(=O)[C@H](CC(C)C)NC(=O)[C@H](Cc1ccc(O)cc1)NC(=O)[C@H](CCC(=O)O)NC(=O)[C@H](CC(C)C)NC(=O)[C@@H](NC(=O)[C@@H](N)Cc1c[nH]c2ccccc12)[C@@H](C)CC)C(C)C)C(C)C)C(=O)N[C@@H](CCCCNC(=O)CCOCCOCCOCCOCCOCCOCCOCCOCCOCCOCCOCCOCCOCCOCCOCCOCCOCCOCCOCCOCCOCCOCCOCCOCCOCCOCCOCCOCCNC(=O)[C@@H](N)CSCC(=O)O[C@H]1CC[C@@]2(C)C(=CC[C@H]3[C@@H]4CC[C@H]([C@H](C)CCCC(C)C)[C@@]4(C)CC[C@@H]32)C1)C(N)=O [C-PAchol] (H-WILEYLWKVPFDFWRGVIK([PEG28-X1])-NH2)	> 40	bluish	–	–	1710	–	–	–	4.9	–
CCCCCCCCCCCCCCCCCCN(CCCCCCCCCCCCCCCCCC)C(=O)CCC(=O)NCCOCCOCCOCCOCCOCCOCCOCCOCCOCCOCCOCCOCCOCCOCCOCCOCCOCCOCCOCCOCCOCCOCCOCCOCCOCCOCCOCCOCCC(=O)NCCCC[C@H](NC(=O)[C@@H](NC(=O)[C@@H](NC(=O)CNC(=O)[C@H](CCCNC(=N)N)NC(=O)[C@H](Cc1c[nH]c2ccccc12)NC(=O)[C@H](Cc1ccccc1)NC(=O)[C@H](CC(=O)O)NC(=O)[C@H](Cc1ccccc1)NC(=O)[C@@H]1CCCN1C(=O)[C@@H](NC(=O)[C@H](CCCCN)NC(=O)[C@H](Cc1c[nH]c2ccccc12)NC(=O)[C@H](CC(C)C)NC(=O)[C@H](Cc1ccc(O)cc1)NC(=O)[C@H](CCC(=O)O)NC(=O)[C@H](CC(C)C)NC(=O)[C@@H](NC(=O)[C@@H](N)Cc1c[nH]c2ccccc12)[C@@H](C)CC)C(C)C)C(C)C)[C@@H](C)CC)C(N)=O [C-PAdialkyl] (H-WILEYLWKVPFDFWRGVIK([PEG28-Suc-N(octadecyl)2])-NH2)	25	bluish	–	–	–	–	–	–	5.7	–
CCCCCCCCCCCCCCCCCCNC(=O)CCC(=O)NCCOCCOCCOCCOCCOCCOCCOCCOCCOCCOCCOCCOCCOCCOCCOCCOCCOCCOCCOCCOCCOCCOCCOCCOCCOCCOCCOCCOCCC(=O)NCCCC[C@H](NC(=O)[C@@H](NC(=O)[C@@H](NC(=O)CNC(=O)[C@H](CCCNC(=N)N)NC(=O)[C@H](Cc1c[nH]c2ccccc12)NC(=O)[C@H](Cc1ccccc1)NC(=O)[C@H](CC(=O)O)NC(=O)[C@H](Cc1ccccc1)NC(=O)[C@@H]1CCCN1C(=O)[C@@H](NC(=O)[C@H](CCCCN)NC(=O)[C@H](Cc1c[nH]c2ccccc12)NC(=O)[C@H](CC(C)C)NC(=O)[C@H](Cc1ccc(O)cc1)NC(=O)[C@H](CCC(=O)O)NC(=O)[C@H](CC(C)C)NC(=O)[C@@H](NC(=O)[C@@H](N)Cc1c[nH]c2ccccc12)[C@@H](C)CC)C(C)C)C(C)C)[C@@H](C)CC)C(N)=O [C-PAmonoalkyl] (H-WILEYLWKVPFDFWRGVIK([PEG28-Suc-NHOctadecyl])-NH2)	20	bluish	3480	24.29 (3.61) μM	80	5.60	250	–	4.7	–
CC[C@H](C)[C@H](NC(=O)[C@@H](NC(=O)CNC(=O)[C@H](CCCNC(=N)N)NC(=O)[C@H](Cc1c[nH]c2ccccc12)NC(=O)[C@H](Cc1ccccc1)NC(=O)[C@H](CC(=O)O)NC(=O)[C@H](Cc1ccccc1)NC(=O)[C@@H]1CCCN1C(=O)[C@@H](NC(=O)[C@H](CCCCNC(=O)CCOCCOCCOCCOCCOCCOCCOCCOCCOCCOCCOCCOCCOCCOCCOCCOCCOCCOCCOCCOCCOCCOCCOCCOCCOCCOCCOCCOCCNC(=O)[C@@H](N)CSCC(=O)O[C@H]1CC[C@@]2(C)C(=CC[C@H]3[C@@H]4CC[C@H]([C@H](C)CCCC(C)C)[C@@]4(C)CC[C@@H]32)C1)NC(=O)[C@H](Cc1c[nH]c2ccccc12)NC(=O)[C@H](CC(C)C)NC(=O)[C@H](Cc1ccc(O)cc1)NC(=O)[C@H](CCC(=O)O)NC(=O)[C@H](CC(C)C)NC(=O)[C@@H](NC(=O)[C@@H](N)Cc1c[nH]c2ccccc12)[C@@H](C)CC)C(C)C)C(C)C)C(N)=O [K-PAchol] (H-WILEYLWK([PEG28-X1])VPFDFWRGVI-NH2)	> 40	bluish	–	–	90	–	–	–	–	4.8
